Assays:
Assay in all cases: biochemical
KIT = KIT (Homo sapiens, UniProt P10721)
Method: (§1) These assays rely on the phosphorylation of small synthetic peptides developed for each kinase, and detect activity by changes in electrophoretic mobility (MSA assay) or by binding of a fluorescently labelled peptide to a large micro-particle and concomitant polarization increases (IMAP assay). Reaction conditions for each kinase are described in Supplementary Table S5. All kinase assays were carried out at Carna Biosciences (Kobe, Japan). The inhibitory map was constructed using Kinome Render[41]. Inhibitor (4×), substrate/ATP-Metal (4×), and kinase (2×) solutions were prepared with assay buffer (20 mM HEPES, 0.01% Triton X-100, 2 mM DTT, pH 7.5) and mixed in 384-well plates at room temperature for 1 or 5 h depending on the kinase. Reactions were stopped by the addition of termination buffer (QuickScout Screening Assist MSA; Carna Biosciences). The entire reaction mixture was then applied to a LabChip system (Perkin-Elmer, Waltham, MA, USA) and the product and substrate peptide peaks were separated and quantified, and then heights of product (P) and substrate (S) peptide peaks were calculated. The level of kinase activity was evaluated with the following equation: activity = P/(P + S).

MET(M1250T) = MET(M1250T) (Homo sapiens, UniProt P08581, M1250T)
Method: as §1

MELK = MELK (Homo sapiens, UniProt Q14680)
Method: as §1

EPHA8 = EPHA8 (Homo sapiens, UniProt P29322)
Method: as §1

FES = FES (Homo sapiens, UniProt P07332)
Method: as §1

ABL(E255K) = target: T1, ABL(E255K) (Homo sapiens, UniProt P00519, E255K)
T1 construct: gene ABL1
Method: as §1

SGK2 = SGK2 (Homo sapiens, UniProt Q9HBY8)
Chain of SGK2 (Q9HBY8 whole entry): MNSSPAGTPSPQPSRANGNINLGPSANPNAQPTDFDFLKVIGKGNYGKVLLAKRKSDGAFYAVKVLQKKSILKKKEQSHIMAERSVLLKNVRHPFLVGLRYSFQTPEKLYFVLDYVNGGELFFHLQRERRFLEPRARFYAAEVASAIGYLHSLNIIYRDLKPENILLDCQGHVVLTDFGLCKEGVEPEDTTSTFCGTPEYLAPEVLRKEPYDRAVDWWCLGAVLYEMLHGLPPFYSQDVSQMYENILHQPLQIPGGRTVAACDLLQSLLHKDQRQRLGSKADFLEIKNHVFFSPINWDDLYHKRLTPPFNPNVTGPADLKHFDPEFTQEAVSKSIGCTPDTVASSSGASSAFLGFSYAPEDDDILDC
Method: as §1

FER = FER (Homo sapiens, UniProt P16591)
Chain of FER (P16591 whole entry): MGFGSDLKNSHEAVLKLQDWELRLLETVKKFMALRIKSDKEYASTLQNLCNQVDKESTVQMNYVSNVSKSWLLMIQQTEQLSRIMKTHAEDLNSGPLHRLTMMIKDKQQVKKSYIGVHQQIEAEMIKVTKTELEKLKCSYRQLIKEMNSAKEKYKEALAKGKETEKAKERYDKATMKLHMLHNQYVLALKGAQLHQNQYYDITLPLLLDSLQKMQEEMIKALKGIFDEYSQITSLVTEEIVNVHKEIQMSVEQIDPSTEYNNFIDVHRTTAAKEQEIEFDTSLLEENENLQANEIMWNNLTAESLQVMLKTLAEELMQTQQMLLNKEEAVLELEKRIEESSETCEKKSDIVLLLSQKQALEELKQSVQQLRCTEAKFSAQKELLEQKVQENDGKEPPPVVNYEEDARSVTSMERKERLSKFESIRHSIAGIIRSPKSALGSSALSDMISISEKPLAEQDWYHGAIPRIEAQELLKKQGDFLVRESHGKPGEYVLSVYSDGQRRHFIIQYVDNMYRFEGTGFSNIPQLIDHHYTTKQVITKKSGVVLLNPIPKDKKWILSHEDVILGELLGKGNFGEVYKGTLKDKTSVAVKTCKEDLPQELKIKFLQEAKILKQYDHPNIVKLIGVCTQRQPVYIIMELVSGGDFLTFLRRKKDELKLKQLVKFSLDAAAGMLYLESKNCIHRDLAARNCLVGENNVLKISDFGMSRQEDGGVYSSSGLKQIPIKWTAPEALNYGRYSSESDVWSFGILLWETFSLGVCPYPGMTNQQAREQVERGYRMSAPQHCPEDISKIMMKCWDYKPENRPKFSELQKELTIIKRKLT
Method: as §1

FMS = target: T2, FMS (Homo sapiens, UniProt P07333)
T2 construct: gene CSF1R
Method: as §1

CDK4/CycD3 = CDK4/CycD3 (Homo sapiens, UniProt P11802)
Chain of CDK4/CycD3 (P11802 whole entry): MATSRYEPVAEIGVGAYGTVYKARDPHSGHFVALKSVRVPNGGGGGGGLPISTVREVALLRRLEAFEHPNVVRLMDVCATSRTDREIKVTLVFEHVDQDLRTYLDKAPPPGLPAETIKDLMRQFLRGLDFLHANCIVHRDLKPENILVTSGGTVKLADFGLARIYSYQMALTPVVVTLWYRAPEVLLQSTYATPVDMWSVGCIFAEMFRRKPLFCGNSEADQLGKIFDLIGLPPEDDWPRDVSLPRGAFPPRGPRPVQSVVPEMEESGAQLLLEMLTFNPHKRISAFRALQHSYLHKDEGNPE
Chain of CDK4/CycD3 (P30281 whole entry partner): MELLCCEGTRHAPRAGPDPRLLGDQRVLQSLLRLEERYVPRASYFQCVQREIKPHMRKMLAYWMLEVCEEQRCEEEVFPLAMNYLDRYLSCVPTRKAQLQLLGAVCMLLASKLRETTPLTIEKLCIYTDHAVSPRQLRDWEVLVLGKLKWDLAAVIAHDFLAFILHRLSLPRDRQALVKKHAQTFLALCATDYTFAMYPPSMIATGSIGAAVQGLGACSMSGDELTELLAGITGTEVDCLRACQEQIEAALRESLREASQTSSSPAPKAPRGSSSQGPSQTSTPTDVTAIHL
Method: as §1

EPHA4 = EPHA4 (Homo sapiens, UniProt P54764)
Method: as §1

JNK1 = target: T3, JNK1 (Homo sapiens, UniProt P45983)
T3 construct: gene MAPK8
Method: as §1

MSK2 = target: T4, MSK2 (Homo sapiens, UniProt O75676)
T4 construct: gene RPS6KA4
T4 sequence (O75676 whole entry): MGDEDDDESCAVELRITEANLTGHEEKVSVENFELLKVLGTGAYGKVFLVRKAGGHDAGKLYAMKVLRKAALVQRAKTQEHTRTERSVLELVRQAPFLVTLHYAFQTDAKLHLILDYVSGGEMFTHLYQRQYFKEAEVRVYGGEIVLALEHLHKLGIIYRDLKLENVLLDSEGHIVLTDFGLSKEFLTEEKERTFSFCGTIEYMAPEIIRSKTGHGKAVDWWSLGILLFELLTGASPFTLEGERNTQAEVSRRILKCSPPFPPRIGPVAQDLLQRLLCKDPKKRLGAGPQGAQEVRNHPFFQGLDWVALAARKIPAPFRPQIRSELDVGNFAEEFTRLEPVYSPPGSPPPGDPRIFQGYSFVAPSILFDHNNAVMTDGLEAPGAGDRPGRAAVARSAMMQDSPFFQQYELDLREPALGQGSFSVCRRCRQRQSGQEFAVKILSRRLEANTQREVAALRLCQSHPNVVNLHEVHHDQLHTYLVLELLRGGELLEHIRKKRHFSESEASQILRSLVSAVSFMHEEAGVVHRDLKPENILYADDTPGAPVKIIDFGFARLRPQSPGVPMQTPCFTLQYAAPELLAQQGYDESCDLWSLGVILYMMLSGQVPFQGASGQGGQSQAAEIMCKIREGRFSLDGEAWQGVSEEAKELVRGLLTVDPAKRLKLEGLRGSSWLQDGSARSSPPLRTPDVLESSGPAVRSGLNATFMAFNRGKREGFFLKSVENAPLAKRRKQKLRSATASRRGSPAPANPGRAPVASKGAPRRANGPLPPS
Method: as §1

PEK = target: T5, PEK (Homo sapiens, UniProt Q9NZJ5)
T5 construct: gene EIF2AK3
Method: as §1

AKT2 = AKT2 (Homo sapiens, UniProt P31751)
Method: as §1

EPHA5 = EPHA5 (Homo sapiens, UniProt P54756)
Chain of EPHA5 (P54756 whole entry): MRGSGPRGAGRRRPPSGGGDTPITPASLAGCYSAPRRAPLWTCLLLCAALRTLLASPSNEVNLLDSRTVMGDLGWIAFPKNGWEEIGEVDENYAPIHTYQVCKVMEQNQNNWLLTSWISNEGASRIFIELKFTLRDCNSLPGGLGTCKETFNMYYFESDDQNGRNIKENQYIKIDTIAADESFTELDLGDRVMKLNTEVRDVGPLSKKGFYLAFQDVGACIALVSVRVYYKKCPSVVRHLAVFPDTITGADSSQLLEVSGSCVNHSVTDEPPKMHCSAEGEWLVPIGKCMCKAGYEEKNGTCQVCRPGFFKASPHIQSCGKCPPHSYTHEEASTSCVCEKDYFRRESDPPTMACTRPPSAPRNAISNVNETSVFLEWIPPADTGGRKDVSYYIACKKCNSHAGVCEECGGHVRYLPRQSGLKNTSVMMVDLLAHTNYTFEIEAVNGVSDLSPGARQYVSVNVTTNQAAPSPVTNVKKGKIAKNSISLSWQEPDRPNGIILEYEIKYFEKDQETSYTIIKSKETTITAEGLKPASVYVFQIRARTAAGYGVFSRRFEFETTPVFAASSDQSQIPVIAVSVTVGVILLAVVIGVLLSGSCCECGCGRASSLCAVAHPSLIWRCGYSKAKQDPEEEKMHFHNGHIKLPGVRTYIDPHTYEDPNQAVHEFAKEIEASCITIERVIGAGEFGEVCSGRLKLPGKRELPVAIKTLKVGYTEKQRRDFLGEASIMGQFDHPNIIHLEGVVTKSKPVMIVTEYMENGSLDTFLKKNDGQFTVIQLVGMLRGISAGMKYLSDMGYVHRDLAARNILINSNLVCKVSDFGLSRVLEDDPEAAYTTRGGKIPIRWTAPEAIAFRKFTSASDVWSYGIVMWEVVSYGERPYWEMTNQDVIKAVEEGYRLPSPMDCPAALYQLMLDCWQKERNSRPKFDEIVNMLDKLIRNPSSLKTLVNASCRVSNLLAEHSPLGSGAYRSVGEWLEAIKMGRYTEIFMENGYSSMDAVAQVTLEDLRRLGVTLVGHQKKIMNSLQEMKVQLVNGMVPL
Method: as §1

CSK = CSK (Homo sapiens, UniProt P41240)
Method: as §1

AKT3 = AKT3 (Homo sapiens, UniProt Q9Y243)
Method: as §1

PDGFRβ = target: T6, PDGFRβ (Homo sapiens, UniProt P09619)
T6 construct: gene PDGFRB
Method: as §1

PYK2 = target: T7, PYK2 (Homo sapiens, UniProt Q14289)
T7 construct: gene PTK2B
Method: as §1

PASK = PASK (Homo sapiens, UniProt Q96RG2)
Method: as §1

DDR1 = DDR1 (Homo sapiens, UniProt Q08345)
Method: as §1

NuaK2 = NuaK2 (Homo sapiens, UniProt Q9H093)
Method: as §1

CDK2/CycE1 = CDK2/CycE1 (Homo sapiens, UniProt P24941)
Method: as §1

TSSK1 = target: T8, TSSK1 (Homo sapiens, UniProt Q9BXA7)
T8 construct: gene TSSK1B
T8 sequence (Q9BXA7 whole entry): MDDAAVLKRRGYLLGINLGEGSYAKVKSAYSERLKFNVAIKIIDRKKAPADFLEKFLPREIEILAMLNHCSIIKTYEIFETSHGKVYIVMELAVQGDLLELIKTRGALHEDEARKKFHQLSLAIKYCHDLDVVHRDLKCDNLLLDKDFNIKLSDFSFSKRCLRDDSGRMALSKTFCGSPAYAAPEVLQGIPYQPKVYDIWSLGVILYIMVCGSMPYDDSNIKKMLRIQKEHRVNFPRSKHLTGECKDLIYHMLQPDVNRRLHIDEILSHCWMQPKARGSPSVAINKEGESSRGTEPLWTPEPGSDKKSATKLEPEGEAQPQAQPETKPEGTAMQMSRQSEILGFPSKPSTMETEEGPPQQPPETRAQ
Method: as §1

TAOK2 = TAOK2 (Homo sapiens, UniProt Q9UL54)
Method: as §1

PKCβ1 = target: T9, PKCβ1 (Homo sapiens, UniProt P05771)
T9 construct: gene PRKCB; isoform beta 1
Method: as §1

p70S6Kβ = target: T10, p70S6Kβ (Homo sapiens, UniProt Q9UBS0)
T10 construct: gene RPS6KB2
Method: as §1

PKR = target: T11, PKR (Homo sapiens, UniProt P19525)
T11 construct: gene EIF2AK2
Method: as §1

BTK = BTK (Homo sapiens, UniProt Q06187)
Method: as §1

NEK1 = NEK1 (Homo sapiens, UniProt Q96PY6)
Method: as §1

Chain of KIT (P10721 whole entry): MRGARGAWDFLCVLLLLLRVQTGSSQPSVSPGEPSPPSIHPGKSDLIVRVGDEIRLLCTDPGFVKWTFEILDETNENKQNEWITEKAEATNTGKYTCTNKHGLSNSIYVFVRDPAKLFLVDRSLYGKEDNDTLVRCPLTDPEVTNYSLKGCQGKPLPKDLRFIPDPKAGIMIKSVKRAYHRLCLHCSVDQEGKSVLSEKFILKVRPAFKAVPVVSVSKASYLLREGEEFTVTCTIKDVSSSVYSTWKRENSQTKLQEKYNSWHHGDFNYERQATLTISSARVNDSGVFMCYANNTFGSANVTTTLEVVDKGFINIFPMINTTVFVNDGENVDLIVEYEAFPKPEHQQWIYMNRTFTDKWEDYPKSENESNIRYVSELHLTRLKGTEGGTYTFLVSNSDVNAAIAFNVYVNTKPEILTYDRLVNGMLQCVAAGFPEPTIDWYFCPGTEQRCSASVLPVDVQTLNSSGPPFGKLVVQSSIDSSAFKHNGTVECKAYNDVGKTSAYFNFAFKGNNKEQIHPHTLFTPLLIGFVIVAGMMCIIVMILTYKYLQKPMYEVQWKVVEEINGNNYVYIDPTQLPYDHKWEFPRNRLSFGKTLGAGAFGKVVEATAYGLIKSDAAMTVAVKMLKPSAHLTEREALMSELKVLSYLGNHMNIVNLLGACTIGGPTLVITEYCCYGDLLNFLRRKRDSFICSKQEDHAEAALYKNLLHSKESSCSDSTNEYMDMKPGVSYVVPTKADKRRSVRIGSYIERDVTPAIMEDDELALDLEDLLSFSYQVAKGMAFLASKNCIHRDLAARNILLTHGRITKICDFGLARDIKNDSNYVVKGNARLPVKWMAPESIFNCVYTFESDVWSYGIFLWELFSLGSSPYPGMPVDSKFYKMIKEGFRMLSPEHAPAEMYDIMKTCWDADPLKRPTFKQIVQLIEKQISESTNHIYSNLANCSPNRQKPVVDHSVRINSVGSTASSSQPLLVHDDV

c1cc(-c2ccc3[nH]ncc3c2)ccn1 [TG693, 5-(4-pyridinyl)-1H-indazole] gave an inhibition at 1 µM (KIT) of -0.9%, an inhibition at 1 µM (MET(M1250T)) of -0.8% and an inhibition at 1 µM (MELK) of 5.7%. For the same compound, the inhibition at 1 µM (EPHA8) was 7.3%, the inhibition at 1 µM (FES) was 1.3% and the inhibition at 1 µM (ABL(E255K)) was -4.2%. For the same compound, the inhibition at 1 µM (SGK2) was -5.4%, the inhibition at 1 µM (FER) was 4.4% and the inhibition at 1 µM (FMS) was 2.6%. The inhibition at 1 µM (CDK4/CycD3) was 5.4%, the inhibition at 1 µM (EPHA4) was 2.4% and the inhibition at 1 µM (JNK1) was -18%. The inhibition at 1 µM (MSK2) was -5.1%, the inhibition at 1 µM (PEK) was 5% and the inhibition at 1 µM (AKT2) was -3%. It also gave an inhibition at 1 µM (EPHA5) of -7.5%, an inhibition at 1 µM (CSK) of -1.2% and an inhibition at 1 µM (AKT3) of -4.6%. The inhibition at 1 µM (PDGFRβ) was 3%, the inhibition at 1 µM (PYK2) was 3.3% and the inhibition at 1 µM (PASK) was 14.7%. It also gave an inhibition at 1 µM (DDR1) of -6%, an inhibition at 1 µM (NuaK2) of 0.4% and an inhibition at 1 µM (CDK2/CycE1) of 18.1%. For the same compound, the inhibition at 1 µM (TSSK1) was 3%, the inhibition at 1 µM (TAOK2) was 2% and the inhibition at 1 µM (PKCβ1) was -11.4%. It also gave an inhibition at 1 µM (p70S6Kβ) of 18.7%, an inhibition at 1 µM (PKR) of 1.2% and an inhibition at 1 µM (BTK) of -9.5%. It also gave an inhibition at 1 µM (NEK1) of -1.5%.

— publication PMC5448077, “Development of an orally available inhibitor of CLK1 for skipping a mutated dystrophin exon in Duchenne muscular dystrophy” (Scientific Reports, 2017)
